Test results published in PubChem BioAssay AID192 (DTP/NCI, 2004).
“And” between values parts separate entries of the source, which are not always exact repeats. Identical values can stand only once. Inconclusive results and toxic doses are left out. Rule for the calls: active = survival T/C of 150% or more; inactive = T/C below 125% in these data.

Test system: BDF1 mice, B16 melanoma ip, median survival T/C
Assay: NCI In Vivo Anticancer Drug Screen. Data for tumor model B16 Melanoma (intraperitoneal) in B6D2F1 (BDF1) mice
Details: endpoint: median survival time, higher = longer survival
Method in brief: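 In this screen, activity was judged from survival or tumor size in treated versus vehicle-treated tumor-bearing mice, reported as T/C.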

[1] = dose: 50.0 mg/kg/injection, schedule: Q01DX009 (ip), vehicle: saline with Tween-80
[2] = dose: 100.0 mg/kg/injection, schedule: Q01DX009 (ip), vehicle: saline with Tween-80
[3] = dose: 200.0 mg/kg/injection, schedule: Q01DX009 (ip), vehicle: saline with Tween-80
[4] = dose: 100.0 mg/kg/injection, schedule: Q01DX009 (ip), vehicle: Klucel (hydroxypropylcellulose) (HPC)
[5] = dose: 200.0 mg/kg/injection, schedule: Q01DX009 (ip), vehicle: Klucel (hydroxypropylcellulose) (HPC)
[6] = dose: 400.0 mg/kg/injection, schedule: Q01DX009 (ip), vehicle: Klucel (hydroxypropylcellulose) (HPC)

Measured: T/C

Nc1nc2c(ncn2C2OC(CO)C(O)C2N)c(=O)[nH]1 (centres undefined)
inactive: dose: 3.12 mg/kg/injection, schedule: Q01DX009 (ip), vehicle: saline 95 % of control and 110 % of control | dose: 6.25 mg/kg/injection, schedule: Q01DX009 (ip), vehicle: saline 101 % of control and 102 % of control and 104 % of control | dose: 12.5 mg/kg/injection, schedule: Q01DX009 (ip), vehicle: saline 106 % of control and 107 % of control and 110 % of control | dose: 25.0 mg/kg/injection, schedule: Q01DX005 (ip), vehicle: saline with Tween-80 104 % of control | dose: 25.0 mg/kg/injection, schedule: Q01DX009 (ip), vehicle: saline 89 % of control and 101 % of control and 112 % of control | dose: 35.0 mg/kg/injection, schedule: Q01DX005 (ip), vehicle: saline with Tween-80 104 % of control | dose: 50.0 mg/kg/injection, schedule: Q01DX009 (ip), vehicle: saline 89 % of control and 101 % of control | dose: 55.0 mg/kg/injection, schedule: Q01DX005 (ip), vehicle: saline with Tween-80 95 % of control | dose: 80.0 mg/kg/injection, schedule: Q01DX005 (ip), vehicle: saline with Tween-80 104 % of control | dose: 100.0 mg/kg/injection, schedule: Q01DX009 (ip), vehicle: saline 96 % of control

CCCCCCCCNc1cc2c3c(c1)CCCN3CCC2
inactive: dose: 0.75 mg/kg/injection, schedule: Q01DX009 (ip), vehicle: Klucel (hydroxypropylcellulose) (HPC) 88 % of control | dose: 1.5 mg/kg/injection, schedule: Q01DX009 (ip), vehicle: Klucel (hydroxypropylcellulose) (HPC) 97 % of control | dose: 6.0 mg/kg/injection, schedule: Q01DX009 (ip), vehicle: Klucel (hydroxypropylcellulose) (HPC) 90 % of control

CC(C)(C)C1CCC(C(=O)O)CC1 (centres undefined)
inactive: [1] 95 % of control | [2] 90 % of control | [3] 90 % of control

CCOc1ccc([NH-])c([NH-])c1.[Cl][Pt+2][Cl]
inactive: dose: 2.5 mg/kg/injection, schedule: Q01DX009 (ip), vehicle: distilled water + Tween-80 115 % of control | dose: 5.0 mg/kg/injection, schedule: Q01DX009 (ip), vehicle: distilled water + Tween-80 115 % of control | dose: 10.0 mg/kg/injection, schedule: Q01DX009 (ip), vehicle: distilled water + Tween-80 117 % of control | dose: 20.0 mg/kg/injection, schedule: Q01DX009 (ip), vehicle: distilled water + Tween-80 102 % of control

NCCCC(NN)C(=O)O (centres undefined)
inactive: dose: 7.5 mg/kg/injection, schedule: Q01DX009 (ip), vehicle: saline 109 % of control | dose: 15.0 mg/kg/injection, schedule: Q01DX009 (ip), vehicle: saline 111 % of control | dose: 30.0 mg/kg/injection, schedule: Q01DX009 (ip), vehicle: saline 104 % of control

c1ccc2c[n+](CCCCCCCCCC[n+]3ccc4ccccc4c3)ccc2c1
inactive: dose: 2.5 mg/kg/injection, schedule: Q01DX009 (ip), vehicle: saline 88 % of control | dose: 5.0 mg/kg/injection, schedule: Q01DX009 (ip), vehicle: saline 97 % of control | dose: 10.0 mg/kg/injection, schedule: Q01DX009 (ip), vehicle: saline 97 % of control | dose: 10.0 mg/kg/injection, schedule: Q04DX003 (ip), vehicle: saline 92 % of control

O=C(/C=C/C(=O)Oc1c(Cl)c(Cl)c(Cl)c(Cl)c1Cl)Oc1c(Cl)c(Cl)c(Cl)c(Cl)c1Cl
inactive: [4] 86 % of control

Nc1ncnc2c1ccn2C1OC2COP(=O)(O)OC2C1O (centres undefined)
inactive: dose: 1.0 mg/kg/injection, schedule: Q01DX009 (ip), vehicle: saline 116 % of control | dose: 4.0 mg/kg/injection, schedule: Q01DX009 (ip), vehicle: saline 111 % of control

CCOC(=O)C1=NN(c2ccccc2)C(=O)C1
inactive: [4] 97 % of control | [5] 97 % of control | [6] 97 % of control

CCOC(=O)C(=O)C(C#N)C(=O)OCC (centres undefined)
inactive: dose: 3.12 mg/kg/injection, schedule: Q01DX009 (ip), vehicle: Klucel (hydroxypropylcellulose) (HPC) 88 % of control | dose: 6.25 mg/kg/injection, schedule: Q01DX009 (ip), vehicle: Klucel (hydroxypropylcellulose) (HPC) 109 % of control | dose: 8.2 mg/kg/injection, schedule: Q01DX009 (ip), vehicle: Klucel (hydroxypropylcellulose) (HPC) 100 % of control | dose: 12.5 mg/kg/injection, schedule: Q01DX009 (ip), vehicle: Klucel (hydroxypropylcellulose) (HPC) 96 % of control and 100 % of control | dose: 18.0 mg/kg/injection, schedule: Q01DX009 (ip), vehicle: Klucel (hydroxypropylcellulose) (HPC) 96 % of control and 105 % of control

CCOC(=O)c1[nH]c(C#N)c(C(=O)OCC)c1C
inactive: dose: 25.0 mg/kg/injection, schedule: Q01DX009 (ip), vehicle: saline with Tween-80 95 % of control | [1] 95 % of control | [2] 88 % of control

COc1cc(/C=C(/C)[N+](=O)[O-])ccc1O
inactive: dose: 50.0 mg/kg/injection, schedule: Q01DX009 (ip), vehicle: carboxymethylcellulose (CMC) 121 % of control | dose: 100.0 mg/kg/injection, schedule: Q01DX009 (ip), vehicle: carboxymethylcellulose (CMC) 102 % of control

CCC1(c2ccccc2)SC(=O)NC1=O (centres undefined)
inactive: [1] 98 % of control | [2] 104 % of control

COc1ccc(C(=O)c2cc(OC)c(OC)c(OC)c2)cc1OC
inactive: [4] 110 % of control | [2] 111 % of control | [5] 105 % of control | [3] 104 % of control | [6] 115 % of control | dose: 400.0 mg/kg/injection, schedule: Q01DX009 (ip), vehicle: saline with Tween-80 102 % of control

Cc1cccc(NC(=O)c2ccc(Cl)cc2)c1C
inactive: [4] 93 % of control | [5] 89 % of control | [6] 89 % of control
